pIC50: −log10 of the molar value.
Target: T1, FAAH (Rattus norvegicus, UniProt P97612)
T1 construct: For the assay of FAAH activity in rat brain membrane (RBM) homogenates; tissue Charles River (animals); host or cells: rat whole brain, membrane fraction
T1 sequence (P97612 1-579): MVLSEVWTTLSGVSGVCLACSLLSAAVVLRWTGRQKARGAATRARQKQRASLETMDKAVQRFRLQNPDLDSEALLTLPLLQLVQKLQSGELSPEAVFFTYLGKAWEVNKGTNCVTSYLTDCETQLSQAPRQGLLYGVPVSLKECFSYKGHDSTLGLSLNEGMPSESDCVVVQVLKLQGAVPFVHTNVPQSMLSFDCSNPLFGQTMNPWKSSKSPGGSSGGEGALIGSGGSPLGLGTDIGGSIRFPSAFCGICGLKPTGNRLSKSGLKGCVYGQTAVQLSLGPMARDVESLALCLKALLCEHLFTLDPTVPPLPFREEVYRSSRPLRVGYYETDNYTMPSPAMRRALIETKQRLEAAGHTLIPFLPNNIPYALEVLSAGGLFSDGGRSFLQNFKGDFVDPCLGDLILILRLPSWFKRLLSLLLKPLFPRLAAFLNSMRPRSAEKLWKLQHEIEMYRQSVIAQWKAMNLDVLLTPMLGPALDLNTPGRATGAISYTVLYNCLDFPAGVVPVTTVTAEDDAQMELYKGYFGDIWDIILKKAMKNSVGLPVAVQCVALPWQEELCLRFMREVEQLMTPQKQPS
Assay: FAAH inhibition, rat brain membrane homogenate assay
Type: biochemical
Details: rat brain homogenate; average activity; read-out: Rat Brain Extract FAAH IC50
Description: Adult rats (Charles River CD strain, female, 200 g) were anaesthetized with isofluorane and rapidly decapitated. Each brain was quickly removed and chilled in tubes (3 brains per tube) on ice. About 25 mL of “homogenization buffer” (20 mM HEPES buffer, pH 7.0, with 1 mM MgCl2) was added to 15 to 20 g of brain. The brains were homogenized on ice for 1 minute using an Omni GLH homogenizer (Omni International, Marietta, Ga.). The homogenates were then transferred to three centrifuge tubes and centrifuged at 36,500 g for 20 minutes at 4° C. The supernatant was discarded and each pellet was re-suspended in 25 mL homogenization buffer. The re-suspended material was again centrifuged (36,500 g, 20 minutes at 4° C.). Pellets were combined by re-suspension in 10 mL of homogenization buffer and incubated in a 37° C. water bath for 15 minutes. The tubes were then placed on ice for 5 minutes followed by centrifugation at 36,500 g for 20 minutes at 4° C. The supernatant was discarded and the membrane pellets were then re-suspended in 40 mL of “re-suspension buffer” (50 mM Tris-HCl buffer, pH 7.4, containing 1 mM EDTA and 3 mM MgCl2). A Bradford Protein assay was performed to determine protein concentration. The protein was aliquotted into screw cap Cryo tubes each containing −400 μL, flash-frozen in liquid nitrogen and stored at −80° C. until used for the assay. A similar protocol was used to obtain brain membrane homogenates from mice
FAAH activity was assayed in the respective homogenates described herein (Rat brain, Mouse brain or Human brain) with certain of the exemplary compounds described above using a modification of the method of Omeir et al. (1995 Life Sci. 56:1999) and Fowler et al. (1997 J. Pharmacol. Exp. Ther. 283:729). For the assay of FAAH activity in rat brain membrane (RBM) homogenates, RBM homogenates (7 μg protein in 20 μL final volume of 10 mM Tris pH 6.5) were mixed with 180 μL of a mixture of the following: […] unlabelled anandamide (AEA), 0.03 Ci radio labeled anandamide [ethanolamine 1-^3H](40-60 Ci/mmol; product number ART-626, American Radiolabelled Chemicals, St. Louis, Mo.), 1 mg/mL Bovine Serum Albumin (fatty acid-free BSA, electrophoresis grade, Sigma, St. Louis, Mo.), 10 mM Tris-HCl (pH 6.5), and 1 mM EDTA in the presence and absence of test compounds (vehicle was DMSO at a final concentration of 1%) and incubated for 10 minutes at 37° C. Samples were placed on ice to terminate the reactions.
The ^3H-ethanolamine product and un-reacted ^3H-anandamide substrate were then separated by either: (1) using chloroform/methanol extraction or (2) passing the reaction mixture through a glass fiber filter containing activated charcoal. Samples were extracted with chloroform/methanol by adding 0.4 mL of chloroform/methanol (1:1 v/v), vigorously mixing the samples, and separating the aqueous and organic phases by centrifugation. Radioactivity (corresponding to FAAH-catalyzed breakdown of ^3H-anandamide) found in aliquots (0.2 mL) of the aqueous phase was determined by liquid scintillation counting with quench correction. IC50 values were determined as described by Jonsson et al. (2001 Br. J Pharmacol. 133:1263). Alternatively, reactions were purified using a modification of the solid-phase extraction method described by Wilson et al (2003 Anal. Biochem. 318: 270). This method was modified as follows: after reactions were incubated at 37° C. for 10 minutes and chilled on ice, the reaction mixtures were acidified by adding 10 μL of sodium phosphate solution[0.5M (pH 2.0)]. Next, 90 μL aliquots of the acidified reaction mixtures were applied to activated charcoal (that had been previously washed with methanol as described by Wilson et al. (supra)) containing 80 μL of water on top of a glass fiber filter, centrifuged, and the radioactivity in the eluate was counted as described previously by Wilson et al. (supra). […]

`COc1ccc2c(c1)c(C(=O)C(=O)Nc1cc(Cl)nc(OC)c1)c(C)n2Cc1ccc(Cl)cc1` [Compound 47, N-(2-chloro-6-methoxypyridin-4-yl)-2-(1-(4-chlorobenzyl)-5-methoxy-2-methyl-1H-indol-3-yl)-2-oxoacetamide] and `COc1ccc2c(c1)c(C(=O)C(=O)Nc1cc(OC)ncc1F)c(C)n2Cc1ccc(Cl)cc1` [Compound 54, 2-(1-(4-chlorobenzyl)-5-methoxy-2-methyl-1H-indol-3-yl)-N-(5-fluoro-2-methoxypyridin-4-yl)-2-oxoacetamide] cannot be ordered by pIC50: over 7.00 for the first, over 7.00 for the second.

First: COc1ccc2c(C(=O)C(=O)Nc3ccnc(OC)c3)c(C)n(Cc3ccc(Cl)cc3)c2c1 [Compound 48, 2-(1-(4-chlorobenzyl)-6-methoxy-2-methyl-1H-indol-3-yl)-N-(2-methoxypyridin-4-yl)-2-oxoacetamide]
Second: COc1ccc2c(c1)c(C(=O)C(=O)Nc1ccnc(O)c1)c(C)n2Cc1ccc(Cl)cc1 [Compound 50, 2-(1-(4-chlorobenzyl)-5-methoxy-2-methyl-1H-indol-3-yl)-N-(2-hydroxypyridin-4-yl)-2-oxoacetamide]
The pIC50 of the first is higher: over 7.00 for the first, 5.00 to 6.00 for the second. The first is the more potent here.

First: COc1cc(NC(=O)C(=O)c2c(C)n(Cc3ccc(Cl)cc3)c3c(OC)cccc23)ccn1 [Compound 51, 2-(1-(4-chlorobenzyl)-7-methoxy-2-methyl-1H-indol-3-yl)-N-(2-methoxypyridin-4-yl)-2-oxoacetamide]
Second: COc1cc(NC(=O)C(=O)c2c(C)n(Cc3ccc(Cl)cc3)c3cc(Cl)c(OC)cc23)ccn1 [Compound 55, 2-(6-chloro-1-(4-chlorobenzyl)-5-methoxy-2-methyl-1H-indol-3-yl)-N-(2-methoxypyridin-4-yl)-2-oxoacetamide]
The pIC50 of the first is lower: 5.00 to 6.00 for the first, over 7.00 for the second. The second is the more potent here.

First: COc1ccc2c(c1)c(C(=O)C(=O)Nc1ccnc(OC)c1Cl)c(C)n2Cc1ccc(Cl)cc1 [Compound 52, N-(3-chloro-2-methoxypyridin-4-yl)-2-(1-(4-chlorobenzyl)-5-methoxy-2-methyl-1H-indol-3-yl)-2-oxoacetamide]
Second: COc1ccc2c(c1)c(C(=O)C(=O)Nc1ccnc(OC)c1F)c(C)n2Cc1ccc(Cl)cc1 [Compound 53, 2-(1-(4-chlorobenzyl)-5-methoxy-2-methyl-1H-indol-3-yl)-N-(3-fluoro-2-methoxypyridin-4-yl)-2-oxoacetamide]
The pIC50 of the first is lower: under 5.00 for the first, over 7.00 for the second. The second is the more potent here.

Compared with `COc1cc(NC(=O)C(=O)c2c(C)n(Cc3ccc(Cl)cc3)c3ccc(OC)c(OC)c23)ccn1` [Compound 56, 2-(1-(4-chlorobenzyl)-4,5-dimethoxy-2-methyl-1H-indol-3-yl)-N-(2-methoxypyridin-4-yl)-2-oxoacetamide], `COc1cc(NC(=O)C(=O)c2c(C)n(Cc3ccc(Cl)cc3)c3ccc(OC)c(Cl)c23)ccn1` [Compound 58, 2-(4-chloro-1-(4-chlorobenzyl)-5-methoxy-2-methyl-1H-indol-3-yl)-N-(2-methoxypyridin-4-yl)-2-oxoacetamide] is higher in pIC50: 5.00 to 6.00 for the first, 6.00 to 7.00 for the second.

`COc1cc(NC(=O)C(=O)c2c(C)n(Cc3ccc(Cl)cc3)c3ccc(OC)c(F)c23)ccn1` [Compound 59, 2-(1-(4-chlorobenzyl)-4-fluoro-5-methoxy-2-methyl-1H-indol-3-yl)-N-(2-methoxypyridin-4-yl)-2-oxoacetamide] and `COc1cc(NC(=O)C(=O)c2c(C)n(Cc3ccc(Cl)cn3)c3cc(F)c(OC)cc23)ccn1` [Compound 64, 2-(1-((5-chloropyridin-2-yl)methyl)-6-fluoro-5-methoxy-2-methyl-1H-indol-3-yl)-N-(2-methoxypyridin-4-yl)-2-oxoacetamide] cannot be ordered by pIC50: over 7.00 for the first, over 7.00 for the second.

`COc1cc(NC(=O)C(=O)c2c(C)n(Cc3ccc(Cl)cn3)c3cc(Cl)c(OC)cc23)ccn1` [Compound 60, 2-(6-chloro-1-((5-chloropyridin-2-yl)methyl)-5-methoxy-2-methyl-1H-indol-3-yl)-N-(2-methoxypyridin-4-yl)-2-oxoacetamide] and `COc1cc(NC(=O)C(=O)c2c(C)n(Cc3ccc(Cl)cn3)c3cc(OC)c(Cl)cc23)ccn1` [Compound 67, 2-(5-chloro-1-((5-chloropyridin-2-yl)methyl)-6-methoxy-2-methyl-1H-indol-3-yl)-N-(2-methoxypyridin-4-yl)-2-oxoacetamide] cannot be ordered by pIC50: over 7.00 for the first, over 7.00 for the second.

`COc1cc(NC(=O)C(=O)c2c(C)n(Cc3ccc(Cl)cn3)c3ccc(C)cc23)ccn1` [Compound 61, 2-(1-((5-chloropyridin-2-yl)methyl)-2,5-dimethyl-1H-indol-3-yl)-N-(2-methoxypyridin-4-yl)-2-oxoacetamide] and `COc1cc(NC(=O)C(=O)c2c(C)n(Cc3ccc(Cl)cn3)c3ccc(Cl)cc23)ccn1` [Compound 63, 2-(5-chloro-1-((5-chloropyridin-2-yl)methyl)-2-methyl-1H-indol-3-yl)-N-(2-methoxypyridin-4-yl)-2-oxoacetamide] cannot be ordered by pIC50: over 7.00 for the first, over 7.00 for the second.

`COc1cc(NC(=O)C(=O)c2c(C)n(Cc3ccc(Cl)cn3)c3ccc([N+](=O)[O-])cc23)ccn1` [Compound 62, 2-(1-((5-chloropyridin-2-yl)methyl)-2-methyl-5-nitro-1H-indol-3-yl)-N-(2-methoxypyridin-4-yl)-2-oxoacetamide] and `COc1cc(NC(=O)C(=O)c2c(C)n(Cc3ccc(Cl)cn3)c3ccc(N)cc23)ccn1` [Compound 65, 2-(5-amino-1-((5-chloropyridin-2-yl)methyl)-2-methyl-1H-indol-3-yl)-N-(2-methoxypyridin-4-yl)-2-oxoacetamide] cannot be ordered by pIC50: over 7.00 for the first, over 7.00 for the second.

`COc1cc(NC(=O)C(=O)c2c(C)n(Cc3ccc(Cl)cn3)c3ccc(N(C)C)cc23)ccn1` [Compound 66, 2-(1-((5-chloropyridin-2-yl)methyl)-5-(dimethylamino)-2-methyl-1H-indol-3-yl)-N-(2-methoxypyridin-4-yl)-2-oxoacetamide] and `COc1cc(NC(=O)C(=O)c2c(C)n(Cc3ccc(Cl)cn3)c3ccccc23)ccn1` [Compound 68, 2-(1-((5-chloropyridin-2-yl)methyl)-2-methyl-1H-indol-3-yl)-N-(2-methoxypyridin-4-yl)-2-oxoacetamide] cannot be ordered by pIC50: over 7.00 for the first, over 7.00 for the second.

`COc1ccc(Cn2c(C)c(C(=O)C(=O)Nc3ccnc(OC)c3)c3cc(C)ccc32)nc1` [Compound 69, 2-(1-((5-methoxypyridin-2-yl)methyl)-2,5-dimethyl-1H-indol-3-yl)-N-(2-methoxypyridin-4-yl)-2-oxoacetamide] and `COc1cc(NC(=O)C(=O)c2c(C)n(Cc3ncc(Cl)cc3Cl)c3cc(Cl)c(OC)cc23)ccn1` [Compound 70, 2-(6-chloro-1-((3,5-dichloropyridin-2-yl)methyl)-5-methoxy-2-methyl-1H-indol-3-yl)-N-(2-methoxypyridin-4-yl)-2-oxoacetamide] cannot be ordered by pIC50: over 7.00 for the first, over 7.00 for the second.

— US20150175599A1, “FAAH Inhibitors” (Ironwood Pharmaceuticals, Inc., priority 2010, published 2015)
